Our source for the LC retention time values is the RepoRT retention time repository.

A short description of the data set: Agilent InfinityLab Poroshell 120 SB-C18, 100 × 2.1 mm, 2.7 µm, 40 °C, 0.2 mL/min, estimated dead time 1.1 min; A: water + 0.1% formic acid; B: acetonitrile; gradient (min/%B) 0/2 15/95 16/95. The conditions noted are these: stereoisomer not certain.

With `CC(=O)NC1C(OP(=O)(O)OP(=O)(O)OCC2OC(n3ccc(=O)[nH]c3=O)C(O)C2O)OC(CO)C(O)C1O` (stereo unspecified), the LC retention time is 5.47 min.
For `Nc1ccn(C2CC(O)C(CO)O2)c(=O)n1` (stereo unspecified) the value was 4.1 min; for `O=C(O)c1cc(=O)[nH]c(=O)n1C1OC(COP(=O)(O)O)C(O)C1O` (stereo unspecified), 8.32 min; for `NC(CCC(=O)NC(CS)C(=O)NCC(=O)O)C(=O)O` (stereo unspecified), 2.1 min.
For `CC(O)C=O` (stereo unspecified) the value was 1.48 min; for `CC=CC(=O)O`, 8.13 min; for `CC(C)CCC=O`, 1.62 min.
With `CCC(C)C(N)C(=O)O` (stereo unspecified) the figure was 2.94 min.
Regarding `OCC(O)CO`, the LC retention time is 3.76 min.
As to `O=P(O)(O)OCC1OC(O)C(O)C(O)C1O` (stereo unspecified), the LC retention time was 1.37 min.
On to `O=C(O)C1CCCN1` (stereo unspecified), for which the LC retention time is 1.41 min.
Consider `CCCCCCCCCCCCCC=CC(O)C(N)CO` (stereo unspecified), for which the LC retention time is 15.1 min.
With `OCC1OC(O)C(O)C(O)C1O` (stereo unspecified) the figure was 12 min; with `CC(=O)SCCNC(=O)CCNC(=O)C(O)C(C)(C)COP(=O)(O)OP(=O)(O)OCC1OC(n2cnc3c(N)ncnc32)C(O)C1OP(=O)(O)O` (stereo unspecified), 11.7 min.
For `CCCCCC=CCC=CC=CC=CC(SCC(N)C(=O)NCC(=O)O)C(O)CCCC(=O)O` (stereo unspecified) the value was 8.91 min.
With `CC(O)C(=O)O` (stereo unspecified) the figure was 3.37 min.
Take `CC(=O)NC1C(O)OC(COP(=O)(O)O)C(O)C1O` (stereo unspecified): the LC retention time is 1.37 min.
Regarding `Cc1cn(C2CC(O)C(CO)O2)c(=O)[nH]c1=O` (stereo unspecified), the LC retention time was 14.7 min.
With `NCC(=O)NC1OC(COP(=O)(O)O)C(O)C1O` (stereo unspecified) the figure was 13.5 min.
Take `CC(=O)C(=O)O`: the LC retention time was 2.51 min.
Regarding `O=c1ccn(C2OC(COP(=O)(O)OP(=O)(O)O)C(O)C2O)c(=O)[nH]1` (stereo unspecified), the LC retention time was 13 min.
For `NCCCCNCCCN` the value was 1.45 min; for `NCC(=O)O`, 2.87 min; for `O=C(O)C1CC(O)C=N1` (stereo unspecified), 2.51 min.
With `Nc1ccn(C2CC(O)C(COP(=O)(O)OP(=O)(O)OP(=O)(O)O)O2)c(=O)n1` (stereo unspecified) the figure was 4.62 min.
For `CC(CCCC(CO)COS(=O)(=O)O)C1CCC2C3C(O)CC4CC(O)CCC4(C)C3CC(O)C12C` (stereo unspecified) the value was 14.7 min; for `CCCCCC(O)C=CC1C(O)CC(=O)C1CC=CCCCC(=O)O` (stereo unspecified), 13.3 min.
`Nc1ncnc2c1ncn2C1OC(CO)C(O)C1O` (stereo unspecified): the LC retention time is 4.62 min.
For `O=c1ccn(C2OC(COP(=O)(O)OP(=O)(O)OP(=O)(O)O)C(O)C2O)c(=O)[nH]1` (stereo unspecified) the value was 10.1 min.
For `O=C(CO)C(O)C(O)C(O)COP(=O)(O)O` (stereo unspecified), the LC retention time is 1.34 min.
For `NC(=O)c1ncn(C2OC(COP(=O)(O)O)C(O)C2O)c1N` (stereo unspecified) the value was 8.32 min.
For `O=C(O)CC(O)C(=O)O` (stereo unspecified) the value was 4.45 min.
For `O=C(O)C(=O)Cc1ccccc1` the value was 1.62 min; for `O=C(O)CCC(=O)O`, 6.53 min; for `CCCCCCCCCCCCCCCC(=O)OC(CC(=O)[O-])C[N+](C)(C)C` (stereo unspecified), 15.6 min.
Turning to `C=C(CC)C(=O)O`, the LC retention time was 1.62 min.
With `NC(=O)c1ncn(C2OC(COP(=O)(O)O)C(O)C2O)c1NC=O` (stereo unspecified) the figure was 1.34 min; with `O=c1[nH]cnc2nc[nH]c12`, 2.51 min.
With `NC(CC(=O)O)C(=O)O` (stereo unspecified) the figure was 1.34 min; with `CC12CCC3C(CCC4=CC(=O)CCC43CO)C1CCC2=O` (stereo unspecified), 6.37 min; with `Nc1ncnc2c1ncn2C1OC(COP(=O)(O)OP(=O)(O)O)C(O)C1O` (stereo unspecified), 2.87 min.
For `NC1C(O)OC(CO)C(O)C1O` (stereo unspecified) the value was 1.62 min; for `Nc1nc2c(ncn2C2CC(O)C(COP(=O)(O)OP(=O)(O)O)O2)c(=O)[nH]1` (stereo unspecified), 11.7 min; for `CC(O)(CC(=O)O)CC(=O)SCCNC(=O)CCNC(=O)C(O)C(C)(C)COP(=O)(O)OP(=O)(O)OCC1OC(n2cnc3c(N)ncnc32)C(O)C1OP(=O)(O)O` (stereo unspecified), 3.78 min.
In the case of `NC(=O)c1cccnc1`, the LC retention time is 2.46 min.
For `NC(=O)C1=CN(C2OC(COP(=O)(O)OP(=O)(O)OCC3OC(n4cnc5c(N)ncnc54)C(OP(=O)(O)O)C3O)C(O)C2O)C=CC1` (stereo unspecified) the value was 8.58 min; for `CCCC(O)CC(=O)O` (stereo unspecified), 12.4 min; for `CC(=O)NC1C(O)OC(CO)C(O)C1O` (stereo unspecified), 2.94 min.
For `NC(CCC(=O)NC(CSSCC(NC(=O)CCC(N)C(=O)O)C(=O)NCC(=O)O)C(=O)NCC(=O)O)C(=O)O` (stereo unspecified) the value was 2.87 min; for `CCCCCCCCCCCCCC=CC(O)C(COC1OC(CO)C(OC2OC(CO)C(O)C(O)C2O)C(O)C1O)NC(=O)CCCCCCCCCCCCCCCCCCCCC` (stereo unspecified), 2.36 min; for `CC(C)CC(N)C(=O)O` (stereo unspecified), 6.01 min.
With `CCCCCCCCCC(O)CC(=O)O` (stereo unspecified) the figure was 6.12 min; with `CCCCCCCCCC=CC(=O)O`, 12.7 min.
`Nc1nc2c(ncn2C2CC(O)C(CO)O2)c(=O)[nH]1` (stereo unspecified): the LC retention time was 5.19 min.
For `COc1cc(C(O)C(=O)O)ccc1O` (stereo unspecified) the value was 1.37 min; for `OCC1OC(OC2(CO)OC(CO)C(O)C2O)C(O)C(O)C1O` (stereo unspecified), 4.1 min.
